Where “and” joins values, the source holds several entries; their conditions need not be identical. Identical values can stand only once. Records with an inconclusive call do not appear.
Tested on: BDF1 mice, s.c. Lewis lung carcinoma, T/C %
Experiment: NCI In Vivo Anticancer Drug Screen. Data for tumor model Lewis Lung Carcinoma (subcutaneous) in B6D2F1 (BDF1) mice
How it was run: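 Transplanted tumors grown in mice; compound vs vehicle dosing; endpoint survival or tumor size; ratio T/C.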

[1] = endpoint: mean tumor weight, dose: 50.0 mg/kg/injection, schedule: Q01DX011 (ip), vehicle: saline, higher = larger tumour
[2] = endpoint: mean tumor weight, dose: 100.0 mg/kg/injection, schedule: Q01DX011 (ip), vehicle: saline, higher = larger tumour
[3] = endpoint: mean tumor weight, dose: 200.0 mg/kg/injection, schedule: Q01DX011 (ip), vehicle: saline, higher = larger tumour
[4] = endpoint: mean tumor weight, dose: 400.0 mg/kg/injection, schedule: Q01DX011 (ip), vehicle: saline, higher = larger tumour
[5] = endpoint: median survival time, dose: 0.5 mg/kg/injection, schedule: Q01DX009 (ip), vehicle: Klucel (hydroxypropylcellulose) (HPC), higher = longer survival
[6] = endpoint: median survival time, dose: 1.0 mg/kg/injection, schedule: Q01DX009 (ip), vehicle: Klucel (hydroxypropylcellulose) (HPC), higher = longer survival

CC(=O)OCC1CCC(NC(=O)N(CCCl)N=O)CC1 (stereo not drawn)
T/C (endpoint: median survival time, dose: 8.0 mg/kg/injection, schedule: Q01DX001 (ip), vehicle: Klucel (hydroxypropylcellulose) (HPC), higher = longer survival): 112 % of control
T/C (endpoint: median survival time, dose: 12.0 mg/kg/injection, schedule: Q01DX001 (ip), vehicle: Klucel (hydroxypropylcellulose) (HPC), higher = longer survival): 124 % of control
T/C (endpoint: median survival time, dose: 18.0 mg/kg/injection, schedule: Q01DX001 (ip), vehicle: Klucel (hydroxypropylcellulose) (HPC), higher = longer survival): 163 % of control
T/C (endpoint: median survival time, dose: 26.0 mg/kg/injection, schedule: Q01DX001 (ip), vehicle: Klucel (hydroxypropylcellulose) (HPC), higher = longer survival): 160 % of control
T/C (endpoint: median survival time, dose: 40.0 mg/kg/injection, schedule: Q01DX001 (ip), vehicle: Klucel (hydroxypropylcellulose) (HPC), higher = longer survival): 104 % of control

CCOP(=O)(N1CC1(C)C)N1CC1(C)C (stereo not drawn)
T/C (endpoint: median survival time, dose: 5.0 mg/kg/injection, schedule: Q01DX009 (ip), vehicle: saline, higher = longer survival): 94 % of control
T/C (endpoint: median survival time, dose: 10.0 mg/kg/injection, schedule: Q01DX009 (ip), vehicle: saline, higher = longer survival): 101 % of control
T/C (endpoint: median survival time, dose: 20.0 mg/kg/injection, schedule: Q01DX009 (ip), vehicle: saline, higher = longer survival): 94 % of control
T/C (endpoint: median survival time, dose: 30.0 mg/kg/injection, schedule: Q01DX009 (ip), vehicle: saline, higher = longer survival): 101 % of control
T/C (endpoint: median survival time, dose: 50.0 mg/kg/injection, schedule: Q01DX009 (ip), vehicle: saline, higher = longer survival): 90 % of control
T/C (endpoint: median survival time, dose: 80.0 mg/kg/injection, schedule: Q01DX009 (ip), vehicle: saline, higher = longer survival): 99 % of control

Nc1ncnc2c1ncn2C1OC(CO)C(O)C1O (stereo not drawn)
T/C [1]: 108 % of control
T/C [2]: 103 % of control
T/C [3]: 102 % of control
T/C [4]: 93 % of control
T/C (endpoint: median survival time, dose: 70.0 mg/kg/injection, schedule: Q03HX024 (ip), vehicle: saline with Tween-80, higher = longer survival): 94 % of control
T/C (endpoint: median survival time, dose: 80.0 mg/kg/injection, schedule: Q03HX024 (ip), vehicle: saline with Tween-80, higher = longer survival): 98 % of control
T/C (endpoint: median survival time, dose: 160.0 mg/kg/injection, schedule: Q03HX024 (ip), vehicle: saline with Tween-80, higher = longer survival): 104 % of control
T/C (endpoint: median survival time, dose: 240.0 mg/kg/injection, schedule: Q03HX024 (ip), vehicle: saline with Tween-80, higher = longer survival): 86 % of control

O=C(NC(Cc1ccccc1)C(=O)CCl)OCc1ccccc1 (stereo not drawn)
T/C (endpoint: median survival time, dose: 3.12 mg/kg/injection, schedule: Q01DX009 (ip), vehicle: saline with Tween-80, higher = longer survival): 107 % of control
T/C (endpoint: median survival time, dose: 6.25 mg/kg/injection, schedule: Q01DX009 (ip), vehicle: saline with Tween-80, higher = longer survival): 87 % of control
T/C (endpoint: median survival time, dose: 12.5 mg/kg/injection, schedule: Q01DX009 (ip), vehicle: saline with Tween-80, higher = longer survival): 94 % of control

CC[CH2][Pb]([CH2]CC)([CH2]CC)[N]1C(=O)c2ccccc2C1=O
T/C (endpoint: median survival time, dose: 3.13 mg/kg/injection, schedule: Q01DX009 (ip), vehicle: Klucel (hydroxypropylcellulose) (HPC), higher = longer survival): 96 % of control
T/C (endpoint: median survival time, dose: 6.25 mg/kg/injection, schedule: Q01DX009 (ip), vehicle: Klucel (hydroxypropylcellulose) (HPC), higher = longer survival): 87 % of control
T/C (endpoint: median survival time, dose: 12.5 mg/kg/injection, schedule: Q01DX009 (ip), vehicle: Klucel (hydroxypropylcellulose) (HPC), higher = longer survival): 102 % of control

[O-][n+]1c(CCl)nc2cccc3c2c1-c1ccccc1-3
T/C (endpoint: median survival time, dose: 25.0 mg/kg/injection, schedule: Q01DX009 (ip), vehicle: saline with Tween-80, higher = longer survival): 106 % of control and 111 % of control
T/C (endpoint: median survival time, dose: 50.0 mg/kg/injection, schedule: Q01DX009 (ip), vehicle: saline with Tween-80, higher = longer survival): 112 % of control and 118 % of control
T/C (endpoint: median survival time, dose: 100.0 mg/kg/injection, schedule: Q01DX009 (ip), vehicle: saline with Tween-80, higher = longer survival): 94 % of control

CNC(C)C(O)c1ccccc1 (stereo not drawn)
T/C (endpoint: mean tumor weight, dose: 66.6 mg/kg/injection, schedule: Q01DX011 (ip), vehicle: saline, higher = larger tumour): 109 % of control

CC(C)C1=CCC2C(=C1)CCC1C(C)(C(=O)O)CCCC21C (stereo not drawn) (tested in a mixture with another compound)
T/C [1]: 72 % of control
T/C [2]: 75 % of control
T/C [3]: 57 % of control
T/C [4]: 45 % of control

CC[C@H]1CN2CCc3cc(OC)c(OC)cc3[C@@H]2C[C@@H]1C[C@H]1NCCc2c1[nH]c1ccc(O)cc21
T/C (endpoint: median survival time, dose: 0.25 mg/kg/injection, schedule: Q01DX009 (ip), vehicle: Klucel (hydroxypropylcellulose) (HPC), higher = longer survival): 103 % of control
T/C [5]: 93 % of control
T/C [6]: 90 % of control

CCOC(=O)C(Br)CC (stereo not drawn)
T/C (endpoint: mean tumor weight, dose: 148.0 mg/kg/injection, schedule: Q01DX011 (ip), vehicle: other, higher = larger tumour): 77 % of control

CN(N=O)C(=O)NC1CCOCC1
T/C (endpoint: median survival time, dose: 475.0 mg/kg/injection, schedule: Q01DX001 (ip), vehicle: saline with Tween-80, higher = longer survival): 108 % of control

O=C1CCC(=O)N1Br
T/C (endpoint: mean tumor weight, dose: 50.0 mg/kg/injection, schedule: Q01DX011 (ip), vehicle: other, higher = larger tumour): 99 % of control
T/C (endpoint: mean tumor weight, dose: 75.0 mg/kg/injection, schedule: Q01DX011 (ip), vehicle: other, higher = larger tumour): 59 % of control and 75 % of control
T/C (endpoint: mean tumor weight, dose: 150.0 mg/kg/injection, schedule: Q01DX011 (ip), vehicle: other, higher = larger tumour): 76 % of control
T/C (endpoint: mean tumor weight, dose: 300.0 mg/kg/injection, schedule: Q01DX011 (ip), vehicle: other, higher = larger tumour): 115 % of control

O=C(O)CCc1c[nH]c2ccc(N(CCCl)CCCl)cc12
T/C (endpoint: mean tumor weight, dose: 0.7 mg/kg/injection, schedule: Q01DX011 (ip), vehicle: carboxymethylcellulose (CMC), higher = larger tumour): 74 % of control
T/C (endpoint: mean tumor weight, dose: 1.5 mg/kg/injection, schedule: Q01DX011 (ip), vehicle: carboxymethylcellulose (CMC), higher = larger tumour): 79 % of control
T/C (endpoint: mean tumor weight, dose: 3.0 mg/kg/injection, schedule: Q01DX011 (ip), vehicle: carboxymethylcellulose (CMC), higher = larger tumour): 51 % of control

CN1c2c(nc(N)[nH]c2=O)NCC1CCNc1ccc(C(=O)NC(CCC(=O)O)C(=O)O)cc1 (stereo not drawn)
T/C (endpoint: median survival time, dose: 268.0 mg/kg/injection, schedule: Q01DX009 (ip), vehicle: saline, higher = longer survival): 120 % of control
T/C (endpoint: median survival time, dose: 400.0 mg/kg/injection, schedule: Q01DX009 (ip), vehicle: saline, higher = longer survival): 116 % of control
T/C (endpoint: median survival time, dose: 400.0 mg/kg/injection, schedule: Q04DX003 (ip), vehicle: saline, higher = longer survival): 103 % of control
T/C (endpoint: median survival time, dose: 600.0 mg/kg/injection, schedule: Q04DX003 (ip), vehicle: saline, higher = longer survival): 116 % of control
T/C (endpoint: median survival time, dose: 800.0 mg/kg/injection, schedule: Q01DX001 (ip), vehicle: saline, higher = longer survival): 98 % of control
T/C (endpoint: median survival time, dose: 900.0 mg/kg/injection, schedule: Q04DX003 (ip), vehicle: saline, higher = longer survival): 106 % of control
T/C (endpoint: median survival time, dose: 1200.0 mg/kg/injection, schedule: Q01DX001 (ip), vehicle: saline, higher = longer survival): 103 % of control
T/C (endpoint: median survival time, dose: 1800.0 mg/kg/injection, schedule: Q01DX001 (ip), vehicle: saline, higher = longer survival): 110 % of control

COc1cc([C@@H]2c3cc4c(cc3[C@@H](OC3OC5COC(C)OC5C(O)C3O)[C@H]3COC(=O)[C@H]23)OCO4)cc(OC)c1O (stereo partly drawn)
T/C (endpoint: median survival time, dose: 4.0 mg/kg/injection, schedule: Q01DX009 (ip), vehicle: saline, higher = longer survival): 124 % of control
T/C (endpoint: median survival time, dose: 20.0 mg/kg/injection, schedule: Q04DX003 (ip), vehicle: saline, higher = longer survival): 107 % of control
T/C (endpoint: median survival time, dose: 20.0 mg/kg/injection, schedule: Q04DX003 (sc), vehicle: saline, higher = longer survival): 124 % of control
T/C (endpoint: median survival time, dose: 80.0 mg/kg/injection, schedule: Q04DX003 (ip), vehicle: saline, higher = longer survival): 91 % of control

O=NN(CCCl)C(=O)NC1CCC(=O)NC1=O (stereo not drawn)
T/C [5]: 107 % of control and 110 % of control
T/C [6]: 100 % of control and 105 % of control
T/C (endpoint: median survival time, dose: 1.25 mg/kg/injection, schedule: Q01DX009 (ip), vehicle: other, higher = longer survival): 122 % of control
T/C (endpoint: median survival time, dose: 2.0 mg/kg/injection, schedule: Q01DX009 (ip), vehicle: Klucel (hydroxypropylcellulose) (HPC), higher = longer survival): 101 % of control and 117 % of control
T/C (endpoint: median survival time, dose: 2.0 mg/kg/injection, schedule: Q02DX009 (ip), vehicle: saline with Tween-80, higher = longer survival): 90 % of control
T/C (endpoint: median survival time, dose: 3.0 mg/kg/injection, schedule: Q02DX009 (ip), vehicle: saline with Tween-80, higher = longer survival): 93 % of control
T/C (endpoint: median survival time, dose: 4.0 mg/kg/injection, schedule: Q01DX009 (ip), vehicle: Klucel (hydroxypropylcellulose) (HPC), higher = longer survival): 182 % of control
T/C (endpoint: median survival time, dose: 5.0 mg/kg/injection, schedule: Q01DX001 (ip), vehicle: gum acacia, higher = longer survival): 89 % of control
T/C (endpoint: median survival time, dose: 5.0 mg/kg/injection, schedule: Q01DX001 (ip), vehicle: other, higher = longer survival): 120 % of control
T/C (endpoint: median survival time, dose: 5.0 mg/kg/injection, schedule: Q01DX001 (ip), vehicle: saline, higher = longer survival): 96 % of control
T/C (endpoint: median survival time, dose: 6.0 mg/kg/injection, schedule: Q04DX003 (ip), vehicle: saline with Tween-80, higher = longer survival): 93 % of control
T/C (endpoint: median survival time, dose: 10.0 mg/kg/injection, schedule: Q01DX001 (ip), vehicle: other, higher = longer survival): 107 % of control and 124 % of control
T/C (endpoint: median survival time, dose: 10.0 mg/kg/injection, schedule: Q01DX001 (ip), vehicle: saline with Tween-80, higher = longer survival): 111 % of control
T/C (endpoint: median survival time, dose: 10.0 mg/kg/injection, schedule: Q01DX001 (ip), vehicle: saline, higher = longer survival): 101 % of control
T/C (endpoint: median survival time, dose: 10.0 mg/kg/injection, schedule: Q04DX003 (ip), vehicle: saline with Tween-80, higher = longer survival): 120 % of control
T/C (endpoint: median survival time, dose: 15.0 mg/kg/injection, schedule: Q01DX001 (ip), vehicle: saline with Tween-80, higher = longer survival): 108 % of control
T/C (endpoint: median survival time, dose: 22.5 mg/kg/injection, schedule: Q01DX001 (ip), vehicle: saline with Tween-80, higher = longer survival): 208 % of control
T/C (endpoint: median survival time, dose: 26.0 mg/kg/injection, schedule: Q01DX001 (ip), vehicle: gum acacia, higher = longer survival): 168 % of control
T/C (endpoint: median survival time, dose: 40.0 mg/kg/injection, schedule: Q01DX001 (ip), vehicle: saline, higher = longer survival): 156 % of control
T/C (endpoint: median tumor weight (est.), dose: 7.6 mg/kg/injection, schedule: Q01DX001 (ip), vehicle: gum acacia, higher = larger tumour): 93 % of control
T/C (endpoint: median tumor weight (est.), dose: 15.0 mg/kg/injection, schedule: Q01DX001 (ip), vehicle: gum acacia, higher = larger tumour): 10 % of control
